Data from patent US11173151B2, “Substituted triazole derivatives and uses thereof” (BAYER AKTIENGESELLSCHAFT, priority 2017, dated 2021).

Assays:
human V1a receptor = molecular target: T1, human V1a receptor (Homo sapiens, UniProt P37288); test: Cellular in vitro assay for determining vasopressin receptor activity, V1a receptor cell line (CHO, aequorin luminescence); assay type: cell-based; conditions: for IC50: CHO cell line transfected with human V1a receptor, [Arg]-vasopressin at EC50 concentration, read-out: IC50 hV1a; for ratio IC50 hV2/hV1a: selectivity ratio IC50 hV2 / IC50 hV1a
T1 construct: expressed in transfected cells; host or cells: CHO K1 (ATCC), also stably transfected with a modified aequorin
T1 sequence (P37288 whole entry): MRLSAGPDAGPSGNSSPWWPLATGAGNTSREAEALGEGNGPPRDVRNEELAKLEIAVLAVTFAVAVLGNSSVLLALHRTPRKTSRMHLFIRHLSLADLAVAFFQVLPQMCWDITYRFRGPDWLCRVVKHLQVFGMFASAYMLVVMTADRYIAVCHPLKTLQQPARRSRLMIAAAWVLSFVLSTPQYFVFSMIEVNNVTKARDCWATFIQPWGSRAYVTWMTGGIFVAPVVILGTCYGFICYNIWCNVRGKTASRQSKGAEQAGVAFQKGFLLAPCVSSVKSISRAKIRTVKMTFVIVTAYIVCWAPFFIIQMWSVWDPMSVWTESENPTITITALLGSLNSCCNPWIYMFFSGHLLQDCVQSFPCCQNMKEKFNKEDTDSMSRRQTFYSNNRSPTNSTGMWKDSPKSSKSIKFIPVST
Procedure, shortened: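 CHO K1/aequorin cells, coelenterazine 5 μg/ml o/n; cpd 10 min; [Arg]-vasopressin at EC50; luminescence read immediately; IC50.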

human V2 receptor = molecular target: T2, human V2 receptor (Homo sapiens, UniProt P30518); test: Cellular in vitro assay for determining vasopressin receptor activity, V2 receptor cell line (CHO, CRE-luciferase); assay type: cell-based; conditions: CHO cell line transfected with human V2 receptor; [Arg8]-vasopressin at EC50 concentration, 3 hours; read-out: IC50 hV2
T2 construct: expressed in transfected cells; host or cells: CHO K1 (ATCC) expressing firefly luciferase under a CRE-responsive promoter
T2 sequence (P30518 whole entry): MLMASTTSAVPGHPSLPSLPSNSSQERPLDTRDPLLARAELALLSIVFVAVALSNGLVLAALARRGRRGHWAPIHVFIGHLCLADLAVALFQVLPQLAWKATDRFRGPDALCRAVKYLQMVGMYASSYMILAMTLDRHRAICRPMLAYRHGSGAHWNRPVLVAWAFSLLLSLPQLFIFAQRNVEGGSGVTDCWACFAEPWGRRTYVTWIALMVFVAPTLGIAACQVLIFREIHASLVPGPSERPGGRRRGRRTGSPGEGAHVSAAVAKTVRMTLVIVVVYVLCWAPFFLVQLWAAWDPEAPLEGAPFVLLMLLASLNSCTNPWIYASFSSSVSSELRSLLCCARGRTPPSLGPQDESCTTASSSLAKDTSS

Compound	IC50 (human V1a receptor)	ratio IC50 hV2/hV1a (human V1a receptor)	IC50 (human V2 receptor)
O=C(Nc1cccnc1-n1cnc(Cn2nc(-c3ccc(Cl)cc3)n(C[C@H](O)C(F)(F)F)c2=O)n1)OCC(F)(F)F [Example 62, 2,2,2-trifluoroethyl {2-[3-({3-(4-chlorophenyl)-5-oxo-4-[(2S)-3,3,3-trifluoro-2-hydroxypropyl]-4,5-dihydro-1H-1,2,4-triazol-1-yl}methyl)-1H-1,2,4-triazol-1-yl]pyridin-3-yl}carbamate]	0.0195 µM	49.1	0.957 µM
O=C(NCC(F)(F)F)Nc1cccnc1-n1cnc(Cn2nc(-c3ccc(Cl)cc3)n(C[C@H](O)C(F)(F)F)c2=O)n1 [Example 63, 1-{2-[3-({3-(4-Chlorophenyl)-5-oxo-4-[(2S)-3,3,3-trifluoro-2-hydroxypropyl]-4,5-dihydro-1H-1,2,4-triazol-1-yl}methyl)-1H-1,2,4-triazol-1-yl]pyridin-3-yl}-3-(2,2,2-trifluoroethyl)urea]	0.00315 µM	366.1	1.15 µM
O=c1n(Cc2ncn(-c3cccnc3N3CCOCC3)n2)nc(-c2ccc(Cl)cc2)n1C[C@H](O)C(F)(F)F [Example 64, 5-(4-Chlorophenyl)-2-({1-[2-(morpholin-4-yl)pyridin-3-yl]-1H-1,2,4-triazol-3-yl}methyl)-4-[(2S)-3,3,3-trifluoro-2-hydroxypropyl]-2,4-dihydro-3H-1,2,4-triazol-3-one]	0.016 µM	33.4	0.535 µM
NC(=O)[C@H]1CCCN1c1ncccc1-n1cnc(Cn2nc(-c3ccc(Cl)cc3)n(C[C@H](O)C(F)(F)F)c2=O)n1 [Example 66, 1-{3-[3-({3-(4-Chlorophenyl)-5-oxo-4-[(2S)-3,3,3-trifluoro-2-hydroxypropyl]-4,5-dihydro-1H-1,2,4-triazol-1-yl}methyl)-1H-1,2,4-triazol-1-yl]pyridin-2-yl}-D-prolinamide]	0.0435 µM	8.4	0.363 µM
O=c1n(Cc2ncn(-c3cccnc3NCCC(F)(F)F)n2)nc(-c2ccc(Cl)cc2)n1C[C@H](O)C(F)(F)F [Example 69, 5-(4-Chlorophenyl)-4-[(2S)-3,3,3-trifluoro-2-hydroxypropyl]-2-[(1-{2-[(3,3,3-trifluoropropyl)amino]pyridin-3-yl}-1H-1,2,4-triazol-3-yl)methyl]-2,4-dihydro-3H-1,2,4-triazol-3-one]	0.235 µM	1.4	0.32 µM
O=C1CCC(CNc2ncccc2-n2cnc(Cn3nc(-c4ccc(Cl)cc4)n(C[C@H](O)C(F)(F)F)c3=O)n2)N1 (stereo partly drawn) [Example 70, 5-(4-Chlorophenyl)-2-{[1-(2-{[(5-oxopyrrolidin-2-yl)methyl]amino}pyridin-3-yl)-1H-1,2,4-triazol-3-yl]methyl}-4-[(2S)-3,3,3-trifluoro-2-hydroxypropyl]-2,4-dihydro-3H-1,2,4-triazol-3-one]	0.15 µM	4.6	0.69 µM
O=c1n(Cc2ncn(-c3cccnc3NCC(F)(F)F)n2)nc(-c2ccc(Cl)cc2)n1C[C@H](O)C(F)(F)F [Example 71, 5-(4-Chlorophenyl)-2-[(1-{2-[(2,2,2-trifluoroethyl)amino]pyridin-3-yl}-1H-1,2,4-triazol-3-yl)methyl]-4-[(2S)-3,3,3-trifluoro-2-hydroxypropyl]-2,4-dihydro-3H-1,2,4-triazol-3-one]	0.15 µM	1.6	0.24 µM

The remaining lines, values ahead:

IC50 (human V1a receptor)	ratio IC50 hV2/hV1a (human V1a receptor)	IC50 (human V2 receptor)	Compound
0.0048 µM	230.2	1.1 µM	CS(=O)(=O)CC(=O)Nc1cccnc1-n1cnc(Cn2nc(-c3ccc(Cl)cc3)n(C[C@H](O)C(F)(F)F)c2=O)n1 [Example 49, N-{2-[3-({3-(4-Chlorophenyl)-5-oxo-4-[(2S)-3,3,3-trifluoro-2-hydroxypropyl]-4,5-dihydro-1H-1,2,4-triazol-1-yl}methyl)-1H-1,2,4-triazol-1-yl]pyridin-3-yl}-2-(methylsulfonyl)acetamide]
0.0315 µM	71.4	2.25 µM	CS(=O)(=O)NCC(=O)Nc1cccnc1-n1cnc(Cn2nc(-c3ccc(Cl)cc3)n(C[C@H](O)C(F)(F)F)c2=O)n1 [Example 53, N-{2-[3-({3-(4-Chlorophenyl)-5-oxo-4-[(2S)-3,3,3-trifluoro-2-hydroxypropyl]-4,5-dihydro-1H-1,2,4-triazol-1-yl}methyl)-1H-1,2,4-triazol-1-yl]pyridin-3-yl}-N^2-(methylsulfonyl)glycinamide]
0.0045 µM	90.4	0.407 µM	O=C(Nc1cccnc1-n1cnc(Cn2nc(-c3ccc(Cl)cc3)n(C[C@H](O)C(F)(F)F)c2=O)n1)C1CC1F (stereo partly drawn) [Example 54, N-{2-[3-({3-(4-Chlorophenyl)-5-oxo-4-[(2S)-3,3,3-trifluoro-2-hydroxypropyl]-4,5-dihydro-1H-1,2,4-triazol-1-yl}methyl)-1H-1,2,4-triazol-1-yl]pyridin-3-yl}-2-fluorocyclopropanecarboxamide]
0.013 µM	38.7	0.503 µM	O=C(Nc1cccnc1-n1cnc(Cn2nc(-c3ccc(Cl)cc3)n(C[C@H](O)C(F)(F)F)c2=O)n1)C1(F)CC1 [Example 57, N-{2-[3-({3-(4-Chlorophenyl)-5-oxo-4-[(2S)-3,3,3-trifluoro-2-hydroxypropyl]-4,5-dihydro-1H-1,2,4-triazol-1-yl}methyl)-1H-1,2,4-triazol-1-yl]pyridin-3-yl}-1-fluorocyclopropanecarboxamide]
0.0195 µM	58.3	1.14 µM	O=C(Nc1cccnc1-n1cnc(Cn2nc(-c3ccc(Cl)cc3)n(C[C@H](O)C(F)(F)F)c2=O)n1)C1CS(=O)(=O)C1 [Example 58, N-{2-[3-({3-(4-Chlorophenyl)-5-oxo-4-[(2S)-3,3,3-trifluoro-2-hydroxypropyl]-4,5-dihydro-1H-1,2,4-triazol-1-yl}methyl)-1H-1,2,4-triazol-1-yl]pyridin-3-yl}thietane-3-carboxamide 1,1-dioxide]
0.19 µM	2.0	0.38 µM	CC(C)(N)CNc1ncccc1-n1cnc(Cn2nc(-c3ccc(Cl)cc3)n(C[C@H](O)C(F)(F)F)c2=O)n1 [Example 65, 2-[(1-{2-[(2-Amino-2-methylpropyl)amino]pyridin-3-yl}-1H-1,2,4-triazol-3-yl)methyl]-5-(4-chlorophenyl)-4-[(2S)-3,3,3-trifluoro-2-hydroxypropyl]-2,4-dihydro-3H-1,2,4-triazol-3-one]
0.0765 µM	2.0	0.157 µM	CC(C)(O)CNc1ncccc1-n1cnc(Cn2nc(-c3ccc(Cl)cc3)n(C[C@H](O)C(F)(F)F)c2=O)n1 [Example 67, 5-(4-Chlorophenyl)-2-[(1-{2-[(2-hydroxy-2-methylpropyl)amino]pyridin-3-yl}-1H-1,2,4-triazol-3-yl)methyl]-4-[(2S)-3,3,3-trifluoro-2-hydroxypropyl]-2,4-dihydro-3H-1,2,4-triazol-3-one]
0.0635 µM	6.9	0.437 µM	NC(=O)[C@@H]1CCCN1c1ncccc1-n1cnc(Cn2nc(-c3ccc(Cl)cc3)n(C[C@H](O)C(F)(F)F)c2=O)n1 [Example 68, 1-{3-[3-({3-(4-Chlorophenyl)-5-oxo-4-[(2S)-3,3,3-trifluoro-2-hydroxypropyl]-4,5-dihydro-1H-1,2,4-triazol-1-yl}methyl)-1H-1,2,4-triazol-1-yl]pyridin-2-yl}-L-prolinamide]
